Results as given in paper PMC6615261, “Repurposing Azithromycin and Rifampicin Against Gram-Negative Pathogens by Combination With Peptidomimetics” (Frontiers in Cellular and Infection Microbiology, 2019).
Like-named read-outs stand apart in the source and are kept apart here.

Legend:
[1] = test system: MDR E. coli ST131; assay: Screening of peptidomimetic-antibiotic combinations (growth / growth inhibition); format: cell-based, Escherichia coli; parameters: key to Growth in combination with RIF / Growth in combination with AZM: Growth (+); growth inhibition (–)
Protocol: (§1) Minimal inhibitory concentrations (MICs) of peptidomimetics, antibiotics and their combinations were determined by broth microdilution according to the Clinical Laboratory Standards Institute performance standards (Clinical and Laboratory Standards Institute, [2013]). […] Since rifampicin and azithromycin mainly are used to treat infections with Gram-positive pathogens only CLSI clinical breakpoints were available for such bacteria. […] Potentiation of additional antibiotics by peptidomimetics was determined by using commercial 96-well plates containing varied concentrations of standard antibiotics (COMPAN1F; Trek Diagnostic Systems Inc.). The peptidomimetics were added immediately prior to inoculation with pathogen, and then MICs were determined as above. The MICs of peptidomimetic/antibiotic combinations were determined according to the method above, and the concentration ratios were selected based upon checkerboard results with 2:1 and 1:4 ratio of peptidomimetic with rifampicin or azithromycin, respectively. Minimal bactericidal concentrations (MBCs) were determined by using growth-curve assay plates. MIC plates were prepared as above, and then the plates were incubated at 37°C with continuous shaking. Growth was recorded at 10 min intervals as optical density (OD) at 600 nm during 24 h. At 24 h, for wells without growth, a sample was diluted 10-fold in sterile saline (0.9% sodium chloride) and plated onto MHA, following CLSI guidelines (Clinical and Laboratory Standards Institute, [1999]).

[2] = MTS/PMS cell viability assay; format: cell-based; details: human, HepG2 hepatocytes, 1 h exposure, read-out: Cytotoxicity HepG2 EC50 ± SD
Protocol: (§2) NIH 3T3 and HepG2 cells (both from ATCC, Manassas, VA, USA) were cultured in flat-bottomed 96-well MicroWell™ plates (NUNC, Roskilde, Denmark) at seeding densities of ~23,000 and ~22,000 cells/well, respectively, and then cultured for 22–24 h under standard culturing conditions (37°C, 5% CO2, humidified air) to reach 80–90% confluence. NIH 3T3 were cultured in Dulbecco's modified Eagle's medium (DMEM) supplemented with 10% (v/v) newborn-calf serum (NCS) (Gibco, Paisly, UK), while HepG2 were cultured in Eagle's minimum essential medium (EMEM) supplemented with 10% (v/v) fetal bovine serum (FBS, Gibco, Paisly, UK), sodium pyruvate (1 mM), and non-essential amino acids (1%, v/v). Both culturing media were further supplemented with penicillin (100 U/mL), streptomycin (100 μg/mL), and L-glutamine (2 mM).
(§3) Effect on cell viability was determined in NIH 3T3 fibroblasts and HepG2 hepatocytes by using the MTS/PMS assay measuring metabolic activity. Briefly, the adhered cells were washed with 37°C Hanks' balanced salt solution (HBSS from Sigma-Aldrich, St. Louis, MO, USA), containing 10 mM HEPES (AppliChem, Darmstadt, Germany), and adjusted to pH 7.4, and were then exposed for 1 h to 100 μL of test compound(s) dissolved in the appropriate culturing medium without serum for each cell line. After exposure the cells were washed with HBSS containing 10 mM HEPES (pH 7.4) and 100 μL of an MTS/PMS solution, consisting of 240 μg/mL MTS (Promega, Madison, WI, USA) and 2.4 μg/mL PMS (SigmaAldrich, Buchs, Switzerland) in HBSS, was added to the cells, which then were incubated for 1 h at 37°C with horizontal shaking under light protection. Absorbance was measured at 492 nm by using a POLARstar OPTIMA plate reader (BMG Labtech, Offenburg, Germany). The relative viability was calculated according to Equation (1) with absorbance values obtained after incubation of cells with test compound; incubation with SDS (0.2%, w/v in medium) defined 100% cell death (Abspos), while the absorbance of cells incubated with medium defined 0% cell death (Absneg).
(§4) (1) Relative viability(%)=(Abssample-Abspos)/(Absneg-Abspos)×100%
(§5) EC50 values were calculated by using GraphPad Prism 7 (GraphPad Software, La Jolla, CA, USA) via fitting of the relative cell viability to the concentration of the test compound by using Equation (2):
(§6) (2) Relative viability(%)= Top-Bottom/1+10^(LogIC50-Log[peptidomimetic]) ×Hill slope
(§7) With top and bottom representing the mean highest and lowest observed values, respectively. The Hill slope represents a factor for the steepness of the linear part of the curve. In order to prevent erroneous calculation, the top and bottom values were constrained to 100 and 0%, respectively. Data were collected from technical triplicates. The selectivity index was calculated as the average effect on cell viability (EC50 values for HepG2 and NIH 3T3 cells) divided by the MIC.

[3] = test system: E. coli ST131; assay: MIC by broth microdilution; format: cell-based, Escherichia coli; details: peptidomimetic alone
Protocol: as §1

[4] = test system: K. pneumoniae ST258; assay: MIC by broth microdilution; format: cell-based, Klebsiella pneumoniae
Protocol: as §1

[5] = test system: K. pneumoniae ST258; assay: Screening of peptidomimetic-antibiotic combinations (growth / growth inhibition); format: cell-based, Klebsiella pneumoniae; parameters: key to Growth in combination with RIF / Growth in combination with AZM: Growth (+); growth inhibition (–)
Protocol: as §1

[6] = test system: NIH 3T3 and HepG2 cells; assay: Effect on viability of mammalian cells (both cell lines); format: cell-based, mouse and human
Protocol: as §2, §3, §4, §5, §6
With top and bottom representing the mean highest and lowest observed values, respectively. The Hill slope represents a factor for the steepness of the linear part of the curve. […] The selectivity index was calculated as the average effect on cell viability (EC50 values for HepG2 and NIH 3T3 cells) divided by the MIC.

[7] = test system: P. aeruginosa ATCC 27853; assay: MIC by broth microdilution; format: cell-based, Pseudomonas aeruginosa; details: peptidomimetic alone
Protocol: as §1

[8] = test system: P. aeruginosa ATCC 27853
Protocol: (§8) The potential synergistic effects in peptidomimetic-antibiotic combinations were assessed by using a two-dimensional checkerboard assay (Garcia, [2010]). Briefly, twofold dilutions of peptide and antibiotic were prepared in MBH II media along the X- and Y-axis, respectively, in 96-well plates. The inoculum was added to the plates, and subsequently these were incubated for 18–20 h. All steps for inoculum preparation and broth microdilution were in accordance with the CLSI guidelines (Clinical and Laboratory Standards Institute, [2013]). The fractional inhibitory concentration index (FICI) was calculated as [MICA(A+B)/MICA(alone)] + [MICB(A+B)/MICB(alone)], where MICA(A+B) represents the MIC of antibiotic (A) in combination with peptidomimetic (B), while MICB(A+B) represents the MIC of peptidomimetic (B) in combination with antibiotic (A). MICA(alone) and MICB(alone) represent the MIC of each compound individually. FICI values of ≤0.5 were interpreted as synergy.

[9] = test system: E. coli ST131
Protocol: as §8

[10] = test system: K. pneumoniae ST258
Protocol: as §8

[11] = MTS/PMS cell viability assay; format: cell-based, mouse; details: mouse, NIH 3T3 fibroblasts, 1 h exposure, read-out: Cytotoxicity NIH 3T3 EC50 ± SD
Protocol: as §2, §3, §4, §5, §6, §7

[12] = test system: K. pneumoniae ST258; assay: Potentiation of additional antibiotics (COMPAN1F plates), MIC; format: cell-based, Klebsiella pneumoniae
Protocol: as §1

[13] = test system: E. coli ST131; assay: as above; format: cell-based, Escherichia coli
Protocol: as §1

[14] = peptidomimetic 0.5 μM + azithromycin 1 μg/mL
[15] = peptidomimetic 0.5 μM + rifampicin 0.5 μg/mL
[16] = MIC of azithromycin combined with the labelled peptidomimetic
[17] = MIC of rifampicin combined with the labelled peptidomimetic

## C[C@@H](c1ccccc1)N(CCC(N)=O)C(=O)[C@H](CCCCNC(=N)N)NC(=O)CCN(C(=O)[C@H](CCCCN)NC(=O)CCN(C(=O)[C@H](CCCCNC(=N)N)NC(=O)CCN(C(=O)[C@H](CCCCN)NC(=O)CCN(C(=O)[C@H](CCCCNC(=N)N)NC(=O)CCN(C(=O)[C@H](CCCCN)NC(=O)CNCCN)[C@@H](C)c1ccccc1)[C@@H](C)c1ccccc1)[C@@H](C)c1ccccc1)[C@@H](C)c1ccccc1)[C@@H](C)c1ccccc1 [Peptidomimetic 25, NDab-Lys-βNspe-hArg-βNspe)3-NH2]
[1]; [14]
  Growth in combination with AZM: –
[1]; [15]
  Growth in combination with RIF: –
[2]
  EC50 at 1 h: 85 ± 3.06 µM
[3]
  MIC E. coli ST131: 2 µM
[4]; average of EC50 (HepG2, NIH 3T3) divided by MIC
  Selectivity Index (SI) K. pneumoniae ST258: (16)
[4]; peptidomimetic alone
  MIC K. pneumoniae ST258: 8 µM
[5]; [14]
  Growth in combination with AZM: +
[5]; [15]
  Growth in combination with RIF: +
[6]
  EC50: 80 to 170 µM
[7]
  MIC P. aeruginosa ATCC 27853: 8 µM
[8]; P. aeruginosa ATCC 27853, MIC of rifampicin combined with the labelled peptidomimetic
  Antibiotic MIC in combination (RIF): 0.06 µg/mL
[8]; P. aeruginosa ATCC 27853, checkerboard
  Peptidomimetic MIC alone: 8 µM
[8]; P. aeruginosa ATCC 27853, combined with AZM
  Peptidomimetic MIC in combination: 1 µM
[8]; P. aeruginosa ATCC 27853, combined with RIF
  Peptidomimetic MIC in combination: 1 µM
[8]; P. aeruginosa, sub-MIC concentrations of peptidomimetic
  Reduction of the MIC of azithromycin: 32- to 512 fold
[9]; [16]
  Antibiotic MIC in combination (AZM): 0.5 µg/mL
[9]; [17]
  Antibiotic MIC in combination (RIF): 0.5 µg/mL
[9]; checkerboard
  Peptidomimetic MIC alone: 2 µM
[9]; combined with AZM
  Peptidomimetic MIC in combination: 0.25 µM
[9]; combined with RIF
  Peptidomimetic MIC in combination: 0.25 µM
[10]; [16]
  Antibiotic MIC in combination (AZM): 8 µg/mL
[10]; [17]
  Antibiotic MIC in combination (RIF): 0.06 µg/mL
[10]; checkerboard
  Peptidomimetic MIC alone: 8 µM
[10]; combined with AZM
  Peptidomimetic MIC in combination: 0.5 µM
[10]; combined with RIF
  Peptidomimetic MIC in combination: 1 µM
[11]
  EC50 at 1 h: 167 ± 5.53 µM

## Trimethoprim/sulfamethoxazole
[12]; + 1 μM peptidomimetic 1
  MIC of antibiotic in presence of peptidomimetic 1: >38 µg/mL
[12]; + 1 μM peptidomimetic 15
  MIC of antibiotic in presence of peptidomimetic 15: >38 µg/mL
[12]; + 1 μM peptidomimetic 26
  MIC of antibiotic in presence of peptidomimetic 26: >38 µg/mL
[12]; no peptidomimetic
  MIC of antibiotic alone: >38 µg/mL
[13]; + 0.25 μM peptidomimetic 26
  MIC of antibiotic in presence of peptidomimetic 26: >38 µg/mL
[13]; + 0.5 μM peptidomimetic 1
  MIC of antibiotic in presence of peptidomimetic 1: >38 µg/mL
[13]; + 0.5 μM peptidomimetic 15
  MIC of antibiotic in presence of peptidomimetic 15: >38 µg/mL
[13]; no peptidomimetic
  MIC of antibiotic alone: >38 µg/mL
